Data reported in patent US20240010681A1, “PEPTIDES AND METHODS OF USE” (REALTA LIFE SCIENCES, INC., priority 2020, published 2024).

Assays:
mCH50 = mCH50 ex vivo on plasma of two-hit ALI rats; type: in vivo, rat; conditions: 10 mg/kg IV; compared with saline treated control
MPO (myeloperoxidase) = MPO (myeloperoxidase) (Homo sapiens, UniProt P05164); assay: ELISA-type plate binding assay, MPO (positive control ligand); conditions: in human plasma
LFA-1 = LFA-1 (Homo sapiens, UniProt P05107+P20701); assay: ELISA-type plate binding assay, LFA-1
Procedure: To address this hypothesis, an ELISA-type binding assay was developed in which neutrophil ligands (LFA-1 and MAC-1/CR3) and […] cell ligands (ICAM-1/CD54 and ICAM-2/CD102) were bound to microtiter plates. Plates were then incubated with increasing amounts of PA-dPEG24 in 1% gelatin/PBS buffer probed with antibody to the peptide and developed.
To ascertain if PA-dPEG24 could bind ICAM-1 and LFA-1 in plasma, these receptors were coated onto microtiter plates and then incubated with human plasma containing increasing amounts of PA-dPEG24, probed with antibody to the peptide and then developed.

C5a = C5a ELISA in plasma, two-hit ALI rat model; type: in vivo
Procedure: C5a was then measured in each sample by ELISA and absorbance was read at 450 nm. Two replicates for each animal were measured for every time point. Data are means and standard error of the mean. Statistical analysis was performed using were conducted using bootstrap approach or Welch's ANOVA. * denotes p=0.010, ** denotes p=0.004, *** denotes p=0.002, and **** denotes p≤0.001 compared to 2-hit animals.
Animals receiving the 2-hit insult had substantially more C5a production at the 1-hour time point as expected (FIG. 20).
RLS-0071 was tested in a two-hit rat model of ALI. The first insult is neutrophil stimulation with lipopolysaccharide (LPS) followed 30 minutes later by a second insult of classical complement activation with incompatible erythrocytes. This model can produce dramatic neutrophil infiltration into alveolar walls, thickening the walls and reducing alveolar airspace by 85%. […] Given the short 5-minute half-life of C5a, the measurement of elevated C5a at 60 minutes is consistent with tissue generated C5a.

[1] = bolus IV 400 mg/kg; four hours after infusion; male Wistar rats
[2] = system: inflammatory cytokines and chemokines; assay: Plasma cytokine and chemokine levels by xMAP bead-based immunoassay in two-hit ALI rat model; type: in vivo
human neutrophils = assay: Immunofluorescence binding to purified human neutrophils; type: cell-based; conditions: 1 mM, 30 minutes
Procedure: To evaluate binding of PA-dPEG24 to neutrophils, purified human neutrophils were cytospun onto glass slides. PA-dPEG24 (1 mM) was then added to one set of slides for 30 minutes and the slides were subsequently washed with PBS. The cells were then incubated with an antibody to PA-dPEG24 (1:1,000 dilution of Chicken Anti-PIC1) followed by a labeled secondary antibody (1:2,000 dilution of Anti-Chicken, Alexa Fluor 488) and counterstained with DAPI. Cells were then visualized by microscopy. In each case, DAPI staining confirmed that the cells were present on the slides and intact.

[3] = IV 200 mg/ml (800 mg/kg)
MPO = assay: OVA/LPS rat asthma model, MPO in BALF (colorimetric); conditions: vs Day 24 asthma animals
[4] = system: OVA/LPS rat model of neutrophilic asthma; assay: OVA/LPS rat model of neutrophilic asthma, leucocyte quantification in BALF; conditions: Day 24
[5] = 1 hour after IVT injection; compared to saline
[6] = system: classical complement pathway mediated hemolysis; assay: Free hemoglobin in plasma (intravascular hemolysis), two-hit ALI rat model; type: in vivo; conditions: 10 mg/kg IV; compared with saline treatment
Procedure: Complement inhibition in the bloodstream of rats in the 2-hit ALI model was measured by two different methods. The first method measured free hemoglobin in the plasma of the rats over time, by measuring intravascular hemolysis of the transfused incompatible erythrocytes.

free DNA = assay: Free DNA in plasma by PicoGreen assay, two-hit ALI rat model; type: in vivo
Procedure: . Plasma samples were incubated with PicoGreen. […] All free DNA measurements for each animal were done in triplicate. Data are means and standard error of the mean. Statistical analysis was performed using bootstrap approach or Welch's ANOVA. * denotes p=0.026, ** denotes p=0.039 and *** denotes p=0.005 compared to 2-hit animals.
Neutrophil extracellular traps (NETs) released from activated neutrophils have been previously shown to play a pathogenic role in a variety of autoimmune, metabolic, and inflammatory diseases. […] . […] .

[7] = system: human umbilical vascular endothelial cell (HUVEC); assay: HUVEC basement membrane matrix (Geltrex) culture, LPS-stimulated angiogenesis; type: cell-based; conditions: no CellTrace dye, compared with 3-dimensional system
Procedure: FIG. 36. […] Cells were applied to a layer of basement membrane matrix containing LPS to stimulate angiogenesis and cultured for 18 hours at 37° C. Angiogenesis (nascent tube formation and sprouting) was observed by light microscopy.

Chain of LFA-1 (P20701 26-1170): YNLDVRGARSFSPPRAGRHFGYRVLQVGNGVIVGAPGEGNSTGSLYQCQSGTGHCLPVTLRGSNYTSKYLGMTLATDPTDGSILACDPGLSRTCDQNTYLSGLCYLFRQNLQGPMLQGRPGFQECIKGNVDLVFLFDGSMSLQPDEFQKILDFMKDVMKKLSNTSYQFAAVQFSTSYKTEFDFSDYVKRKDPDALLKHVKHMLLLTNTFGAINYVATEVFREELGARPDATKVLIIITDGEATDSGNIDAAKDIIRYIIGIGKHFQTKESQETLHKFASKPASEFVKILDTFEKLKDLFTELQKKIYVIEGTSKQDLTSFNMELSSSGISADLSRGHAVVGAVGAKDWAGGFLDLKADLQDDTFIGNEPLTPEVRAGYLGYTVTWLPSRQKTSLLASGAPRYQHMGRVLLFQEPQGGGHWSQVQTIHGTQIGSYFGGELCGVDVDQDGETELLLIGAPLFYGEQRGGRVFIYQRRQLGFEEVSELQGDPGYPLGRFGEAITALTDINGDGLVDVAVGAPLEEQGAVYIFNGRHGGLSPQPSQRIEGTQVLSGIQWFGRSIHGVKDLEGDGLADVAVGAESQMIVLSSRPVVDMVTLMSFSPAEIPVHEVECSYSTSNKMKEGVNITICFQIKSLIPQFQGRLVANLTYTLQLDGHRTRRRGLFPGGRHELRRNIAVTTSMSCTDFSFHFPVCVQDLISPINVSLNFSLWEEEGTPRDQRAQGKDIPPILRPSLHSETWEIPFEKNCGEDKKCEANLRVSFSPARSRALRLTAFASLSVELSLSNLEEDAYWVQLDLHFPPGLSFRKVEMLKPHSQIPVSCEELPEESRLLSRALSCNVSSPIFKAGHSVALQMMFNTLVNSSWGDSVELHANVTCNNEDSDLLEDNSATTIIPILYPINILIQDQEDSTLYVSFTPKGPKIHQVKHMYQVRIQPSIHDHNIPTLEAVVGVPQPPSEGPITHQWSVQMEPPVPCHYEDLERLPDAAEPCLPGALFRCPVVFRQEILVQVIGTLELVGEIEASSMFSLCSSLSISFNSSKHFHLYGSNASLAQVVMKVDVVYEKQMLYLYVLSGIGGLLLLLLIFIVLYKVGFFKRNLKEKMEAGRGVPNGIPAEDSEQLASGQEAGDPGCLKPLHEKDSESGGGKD
Chain of LFA-1 (P05107 23-769): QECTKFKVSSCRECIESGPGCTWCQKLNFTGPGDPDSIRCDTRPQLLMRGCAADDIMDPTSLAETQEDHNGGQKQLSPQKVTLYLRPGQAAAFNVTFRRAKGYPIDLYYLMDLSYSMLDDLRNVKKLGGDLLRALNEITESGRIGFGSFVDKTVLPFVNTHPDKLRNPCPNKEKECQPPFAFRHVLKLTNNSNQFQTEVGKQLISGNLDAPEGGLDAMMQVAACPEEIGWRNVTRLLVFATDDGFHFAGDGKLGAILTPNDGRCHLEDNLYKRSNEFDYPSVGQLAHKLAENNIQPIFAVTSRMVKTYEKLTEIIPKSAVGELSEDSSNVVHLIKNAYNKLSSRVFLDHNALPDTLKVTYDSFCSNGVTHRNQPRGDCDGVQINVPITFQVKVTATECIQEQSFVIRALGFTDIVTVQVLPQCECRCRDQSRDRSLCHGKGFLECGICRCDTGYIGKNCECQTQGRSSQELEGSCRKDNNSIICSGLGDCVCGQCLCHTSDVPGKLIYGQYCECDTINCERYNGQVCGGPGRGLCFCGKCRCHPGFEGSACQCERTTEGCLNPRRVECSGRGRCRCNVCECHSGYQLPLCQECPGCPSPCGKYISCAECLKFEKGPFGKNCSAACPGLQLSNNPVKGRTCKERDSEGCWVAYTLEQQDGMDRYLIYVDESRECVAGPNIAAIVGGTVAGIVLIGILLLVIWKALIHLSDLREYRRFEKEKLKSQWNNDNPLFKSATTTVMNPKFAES
Chain of MPO (myeloperoxidase) (P05164 49-745, species assumed): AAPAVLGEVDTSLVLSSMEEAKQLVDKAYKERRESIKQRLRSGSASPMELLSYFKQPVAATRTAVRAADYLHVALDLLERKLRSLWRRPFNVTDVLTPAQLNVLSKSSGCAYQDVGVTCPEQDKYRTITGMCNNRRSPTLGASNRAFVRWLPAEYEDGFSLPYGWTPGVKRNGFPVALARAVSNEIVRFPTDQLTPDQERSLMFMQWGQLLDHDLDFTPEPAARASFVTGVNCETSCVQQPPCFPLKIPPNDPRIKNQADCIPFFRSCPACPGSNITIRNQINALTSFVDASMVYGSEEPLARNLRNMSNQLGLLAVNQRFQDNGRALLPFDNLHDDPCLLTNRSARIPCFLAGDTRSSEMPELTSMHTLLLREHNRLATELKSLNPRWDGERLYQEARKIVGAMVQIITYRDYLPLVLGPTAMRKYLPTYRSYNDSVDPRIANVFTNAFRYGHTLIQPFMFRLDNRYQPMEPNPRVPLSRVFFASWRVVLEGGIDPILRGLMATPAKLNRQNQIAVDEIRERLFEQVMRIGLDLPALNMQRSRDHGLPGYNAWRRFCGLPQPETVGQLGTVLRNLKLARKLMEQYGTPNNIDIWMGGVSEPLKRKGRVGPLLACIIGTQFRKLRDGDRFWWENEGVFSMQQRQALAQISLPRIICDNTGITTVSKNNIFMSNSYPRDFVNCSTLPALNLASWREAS

CC[C@H](C)[C@H](N)C(=O)N[C@@H](C)C(=O)N[C@@H](CC(C)C)C(=O)N[C@H](C(=O)N[C@@H](CC(C)C)C(=O)N[C@@H](CCC(=O)O)C(=O)N1CCC[C@H]1C(=O)N[C@H](C(=O)N[C@@H](CS)C(=O)N[C@@H](CS)C(=O)N[C@@H](CCC(N)=O)C(=O)N[C@@H](CCC(=O)O)C(=O)N[C@@H](CCCNC(=N)N)C(=O)N[C@@H](C)C(=O)N[C@@H](C)C(=O)NCCOCCOCCOCCOCCOCCOCCOCCOCCOCCOCCOCCOCCOCCOCCOCCOCCOCCOCCOCCOCCOCCOCCOCCOCCC(=O)O)[C@@H](C)CC)[C@@H](C)CC [RLS-0071]
inhibition of mCH50 (mCH50): did not inhibit mCH50
binding to MPO (MPO (myeloperoxidase)): bound PA-dPEG24 in a dose-dependent manner
binding to LFA-1 (LFA-1; 1% gelatin/PBS buffer): bound dose-dependently
binding to LFA-1 (LFA-1; in human plasma): bound dose-dependently
decrease in C5a generation in the tissues (C5a; 10 mg/kg IV): 50%
C5a level in blood (C5a; all rescue doses 40 mg/kg (0.5-180 minutes), 1-hour time point, vs 2-hit only animals): significantly reduced levels of C5a
C5a level in blood (C5a; prophylactic 10, 40 and 160 mg/kg, 5-minute time point, p<0.001 each dose): significant reduction of C5a
C5a level in blood (C5a; prophylactic doses, 1-hour time point, 10 mg/kg reaching significance (p=0.002)): reduction of C5a at the 1-hour time points
C5a level in blood (C5a; rescue 40 mg/kg at 0.5, 60, 90 and 120 minutes (not 180 minutes), 5-minute time point): significantly decreased levels of C5a
staining for peptide in kidney tissue [1]: dark staining on the glomerulus and tubules
staining for peptide in liver tissue [1]: discrete staining
levels of anti-inflammatory Th2 cytokine IL-4 ([2]; 10 or 160 mg/kg before or 40 or 160 mg/kg after transfusion, FIG. 3): did not significantly decrease
other cytokine and growth factor levels (EGF, LIX, VEGF, Leptin, GRO, Fractalkine, GM-CSF, Eotaxin, G-CSF) ([2]; 10 or 160 mg/kg before or 40 or 160 mg/kg after transfusion, FIG. 4): either significant reduction or a trend toward reduced levels
cytokine levels IL-5, IL-18, IL-1alpha, IL-13, IL-17, IL-12, IP-10 ([2]; 10 or 160 mg/kg before or 40 or 160 mg/kg after transfusion, terminal blood plasma, FIG. 2): either significant pro-inflammatory cytokine reduction or a trend toward reduced levels
VEGF level in 2-hit rat acute lung injury model ([2]; FIG. 4): downregulate VEGF
pro-inflammatory cytokines (IL-1a, IL-1b, IL-6, IFN-g, IL-17, IL-18, TNFa, RANTES) and chemokines (MCP-1, MIP-1a, MIP-2) ([2]; prophylactic 10 or 160 mg/kg, rescue 40 or 160 mg/kg, terminal 4-hour time point, vs untreated 2-hit animals, some significant): reduced levels of cytokines and chemokines
cytokine levels IFNgamma, IL-6, IL-2, IL-10, TNFalpha, MCP-1, RANTES, MIP1alpha, IL-1beta, MIP-2 ([2]; single dose 10 or 160 mg/kg before or 40 or 160 mg/kg after transfusion, terminal blood plasma, FIG. 1): either significant pro-inflammatory cytokine reduction or a trend toward reduced levels
binding to neutrophil cell surface (immunofluorescence) (human neutrophils): fluorescence signal demonstrating direct binding of the peptide to the cell surface
RLS-0071 level in plasma after 24 hours [3]: undetectable
MPO levels in the BALF (MPO; prophylactic 160 mg/kg IV, p=0.12): reduction in MPO levels that did not reach statistical significance
MPO levels in the BALF (MPO; rescue 160 mg/kg IV, P=0.05): significant reduction in MPO levels
stability in diluted dose solution in water (6-day storage at -20 °C freezer, M2768 detected): not stable
stability in solutions, rat urine, and/or rat plasma (decomposes to M2768 by dehydrogenation): not stable
stability in rat plasma and urine (spiked into control blank rat plasma and pre-dose urine, or decomposition during sample processing): not stable in rat plasma/urine
neutrophil accumulation in the BALF ([4]; prophylactic 160 mg/kg IV Days 21, 22, 23, P<0.03): significant reduction in neutrophil accumulation
neutrophils in the BALF ([4]; rescue 160 mg/kg IV Days 22 and 23, P<0.1844): reduction in neutrophils but did not reach statistical significance
DAB staining of retinal tissue [5]: significant DAB signal
inhibition of intravascular hemolysis (free hemoglobin in plasma) [6]: no inhibition of classical complement pathway mediated hemolysis
free DNA level in plasma (free DNA; prophylactic 10, 40 and 160 mg/kg, 4 hours after transfusion, 160 mg/kg significant (p=0.026)): reduced levels of free DNA
free DNA level in plasma (free DNA; rescue 40 mg/kg up to three hours after 2-hit injury, 120 and 180 minutes significant (p=0.039, p=0.005)): reduced levels of free DNA
angiogenesis (sprouting and tube formation) [7]: same results
